Laboratory results reported in ChEMBL document CHEMBL1134924, “An efficient and practical method for solid-phase synthesis of tripeptide-bearing glycopeptide antibiotics: combinatorial parallel synthesis of carboxamide derivatives of chloroorienticin B” (2002).
Converted amounts (≈) assume the structure as drawn.

Tests used:
Type in all cases: functional
Enterococcus faecium = assay: In vitro antibacterial activity against VRE (Vancomycin Resistant Enterococcus faecium SR-7917)
Enterococcus faecalis = assay: In vitro antibacterial activity against VRE (Vancomycin Resistant Enterococcus faecalis SR-7914)
Staphylococcus aureus = assay: In vitro antibacterial activity against MRSA (Methicillin Resistant Staphylococcus aureus SR-3637)

Compound: CN[C@H](CC(C)C)C(=O)N[C@H]1C(=O)N[C@@H](CC(N)=O)C(=O)N[C@H]2C(=O)N[C@H]3C(=O)NC(C(=O)N[C@@H](C(=O)NC(=O)[C@H](CCC(=O)O)NC(=O)CNC(=O)[C@@H](N)Cc4ccc(O)cc4)c4cc(O)cc(O)c4-c4cc3ccc4O)[C@H](O[C@H]3C[C@](C)(N)[C@@H](O)[C@H](C)O3)c3ccc(c(Cl)c3)Oc3cc2cc(c3O[C@@H]2O[C@H](CO)[C@@H](O)[C@H](O)[C@H]2O)Oc2ccc(cc2Cl)[C@H]1O
- MIC (Enterococcus faecium): > 128 µg/mL
- MIC (Enterococcus faecalis): > 128 µg/mL
- MIC (Staphylococcus aureus): 4 µg/mL (≈ 2.23 µM)

Compound: CN[C@H](CC(C)C)C(=O)N[C@H]1C(=O)N[C@@H](CC(N)=O)C(=O)N[C@H]2C(=O)N[C@H]3C(=O)NC(C(=O)N[C@@H](C(=O)NC(=O)[C@H](CCCCN)NC(=O)[C@H](Cc4c[nH]c5ccccc45)NC(=O)[C@@H](N)CC(C)C)c4cc(O)cc(O)c4-c4cc3ccc4O)[C@H](O[C@H]3C[C@](C)(N)[C@@H](O)[C@H](C)O3)c3ccc(c(Cl)c3)Oc3cc2cc(c3O[C@@H]2O[C@H](CO)[C@@H](O)[C@H](O)[C@H]2O)Oc2ccc(cc2Cl)[C@H]1O
- MIC (Enterococcus faecium): 16 µg/mL (≈ 8.53 µM)
- MIC (Enterococcus faecalis): 32 µg/mL (≈ 17.1 µM)
- MIC (Staphylococcus aureus): 0.5 µg/mL (≈ 0.267 µM)

Compound: CN[C@H](CC(C)C)C(=O)N[C@H]1C(=O)N[C@@H](CC(N)=O)C(=O)N[C@H]2C(=O)N[C@H]3C(=O)NC(C(=O)N[C@@H](C(=O)NC(=O)[C@H](CCCCN)NC(=O)CNC(=O)[C@@H](N)Cc4ccc(O)cc4)c4cc(O)cc(O)c4-c4cc3ccc4O)[C@H](O[C@H]3C[C@](C)(N)[C@@H](O)[C@H](C)O3)c3ccc(c(Cl)c3)Oc3cc2cc(c3O[C@@H]2O[C@H](CO)[C@@H](O)[C@H](O)[C@H]2O)Oc2ccc(cc2Cl)[C@H]1O
- MIC (Enterococcus faecium): 64 µg/mL (≈ 35.6 µM)
- MIC (Enterococcus faecalis): 128 µg/mL (≈ 71.2 µM)
- MIC (Staphylococcus aureus): 0.5 µg/mL (≈ 0.278 µM)

Compound: CN[C@H](CC(C)C)C(=O)N[C@H]1C(=O)N[C@@H](CC(N)=O)C(=O)N[C@H]2C(=O)N[C@H]3C(=O)N[C@H](C(=O)N[C@H](C(=O)NC(=O)[C@H](Cc4c[nH]cn4)NC(=O)[C@@H]4CCCN4C(=O)[C@@H](N)Cc4c[nH]c5ccccc45)c4cc(O)cc(O)c4-c4cc3ccc4O)[C@H](O[C@H]3C[C@](C)(N)[C@@H](O)[C@H](C)O3)c3ccc(c(Cl)c3)Oc3cc2cc(c3OC2O[C@H](CO)[C@@H](O)[C@H](O)[C@H]2O)Oc2ccc(cc2Cl)[C@H]1O (some centres not stated)
- MIC (Enterococcus faecium): 16 µg/mL (≈ 8.56 µM)
- MIC (Enterococcus faecalis): 64 µg/mL (≈ 34.2 µM)
- MIC (Staphylococcus aureus): 0.5 µg/mL (≈ 0.268 µM)

Compound: CN[C@H](CC(C)C)C(=O)N[C@H]1C(=O)N[C@@H](CC(N)=O)C(=O)N[C@H]2C(=O)N[C@H]3C(=O)NC(C(=O)N[C@@H](C(=O)NC(=O)[C@H](Cc4c[nH]cn4)NC(=O)[C@H](Cc4c[nH]c5ccccc45)NC(=O)[C@@H](N)Cc4ccc(O)cc4)c4cc(O)cc(O)c4-c4cc3ccc4O)[C@H](O[C@H]3C[C@](C)(N)[C@@H](O)[C@H](C)O3)c3ccc(c(Cl)c3)Oc3cc2cc(c3O[C@@H]2O[C@H](CO)[C@@H](O)[C@H](O)[C@H]2O)Oc2ccc(cc2Cl)[C@H]1O
- MIC (Enterococcus faecium): 8 µg/mL (≈ 4.13 µM)
- MIC (Enterococcus faecalis): 16 µg/mL (≈ 8.27 µM)
- MIC (Staphylococcus aureus): 0.5 µg/mL (≈ 0.258 µM)

Compound: CN[C@H](CC(C)C)C(=O)N[C@H]1C(=O)N[C@@H](CC(N)=O)C(=O)N[C@H]2C(=O)N[C@H]3C(=O)NC(C(=O)N[C@@H](C(=O)NC(=O)CNC(=O)[C@H](Cc4c[nH]cn4)NC(=O)[C@@H](N)Cc4c[nH]c5ccccc45)c4cc(O)cc(O)c4-c4cc3ccc4O)[C@H](O[C@H]3C[C@](C)(N)[C@@H](O)[C@H](C)O3)c3ccc(c(Cl)c3)Oc3cc2cc(c3O[C@@H]2O[C@H](CO)[C@@H](O)[C@H](O)[C@H]2O)Oc2ccc(cc2Cl)[C@H]1O
- MIC (Enterococcus faecium): 16 µg/mL (≈ 8.75 µM)
- MIC (Enterococcus faecalis): 32 µg/mL (≈ 17.5 µM)
- MIC (Staphylococcus aureus): 0.25 µg/mL (≈ 0.137 µM)

Compound: CN[C@H](CC(C)C)C(=O)N[C@H]1C(=O)N[C@@H](CC(N)=O)C(=O)N[C@H]2C(=O)N[C@H]3C(=O)NC(C(=O)N[C@@H](C(=O)NC(=O)CNC(=O)[C@H](Cc4c[nH]c5ccccc45)NC(=O)[C@@H](N)CCCCN)c4cc(O)cc(O)c4-c4cc3ccc4O)[C@H](O[C@H]3C[C@](C)(N)[C@@H](O)[C@H](C)O3)c3ccc(c(Cl)c3)Oc3cc2cc(c3O[C@@H]2O[C@H](CO)[C@@H](O)[C@H](O)[C@H]2O)Oc2ccc(cc2Cl)[C@H]1O
- MIC (Enterococcus faecium): 32 µg/mL (≈ 17.6 µM)
- MIC (Enterococcus faecalis): 64 µg/mL (≈ 35.2 µM)
- MIC (Staphylococcus aureus): 0.25 µg/mL (≈ 0.137 µM)

Compound: CN[C@H](CC(C)C)C(=O)N[C@H]1C(=O)N[C@@H](CC(N)=O)C(=O)N[C@H]2C(=O)N[C@H]3C(=O)NC(C(=O)N[C@@H](C(=O)NC(=O)[C@H](Cc4ccc(O)cc4)NC(=O)[C@H](Cc4c[nH]c5ccccc45)NC(=O)[C@@H](N)CCC(=O)O)c4cc(O)cc(O)c4-c4cc3ccc4O)[C@H](O[C@H]3C[C@](C)(N)[C@@H](O)[C@H](C)O3)c3ccc(c(Cl)c3)Oc3cc2cc(c3O[C@@H]2O[C@H](CO)[C@@H](O)[C@H](O)[C@H]2O)Oc2ccc(cc2Cl)[C@H]1O
- MIC (Enterococcus faecium): > 128 µg/mL
- MIC (Enterococcus faecalis): > 128 µg/mL
- MIC (Staphylococcus aureus): 8 µg/mL (≈ 4.15 µM)

Compound: CN[C@H](CC(C)C)C(=O)N[C@H]1C(=O)N[C@@H](CC(N)=O)C(=O)N[C@H]2C(=O)N[C@H]3C(=O)NC(C(=O)N[C@@H](C(=O)NC(=O)[C@H](CO)NC(=O)[C@H](Cc4c[nH]c5ccccc45)NC(=O)[C@@H](N)Cc4ccc(O)cc4)c4cc(O)cc(O)c4-c4cc3ccc4O)[C@H](OC3C[C@](C)(N)[C@@H](O)[C@H](C)O3)c3ccc(c(Cl)c3)Oc3cc2cc(c3O[C@@H]2O[C@H](CO)[C@@H](O)[C@H](O)[C@H]2O)Oc2ccc(cc2Cl)[C@H]1O (some centres not stated)
- MIC (Enterococcus faecium): 16 µg/mL (≈ 8.49 µM)
- MIC (Enterococcus faecalis): 32 µg/mL (≈ 17 µM)
- MIC (Staphylococcus aureus): 0.5 µg/mL (≈ 0.265 µM)

Compound: CN[C@H](CC(C)C)C(=O)N[C@H]1C(=O)N[C@@H](CC(N)=O)C(=O)N[C@H]2C(=O)N[C@H]3C(=O)NC(C(=O)N[C@@H](C(=O)NC(=O)[C@H](CCCCN)NC(=O)[C@H](Cc4ccc(O)cc4)NC(=O)[C@@H](N)CC(C)C)c4cc(O)cc(O)c4-c4cc3ccc4O)[C@H](O[C@H]3C[C@](C)(N)[C@@H](O)[C@H](C)O3)c3ccc(c(Cl)c3)Oc3cc2cc(c3O[C@@H]2O[C@H](CO)[C@@H](O)[C@H](O)[C@H]2O)Oc2ccc(cc2Cl)[C@H]1O
- MIC (Enterococcus faecium): 32 µg/mL (≈ 17.3 µM)
- MIC (Enterococcus faecalis): 128 µg/mL (≈ 69.1 µM)
- MIC (Staphylococcus aureus): 0.5 µg/mL (≈ 0.27 µM)

Compound: CN[C@H](CC(C)C)C(=O)N[C@H]1C(=O)N[C@@H](CC(N)=O)C(=O)N[C@H]2C(=O)N[C@H]3C(=O)NC(C(=O)N[C@@H](C(=O)NC(=O)[C@H](Cc4ccc(O)cc4)NC(=O)[C@H](Cc4c[nH]cn4)NC(=O)[C@@H](N)CCCCN)c4cc(O)cc(O)c4-c4cc3ccc4O)[C@H](O[C@H]3C[C@](C)(N)[C@@H](O)[C@H](C)O3)c3ccc(c(Cl)c3)Oc3cc2cc(c3O[C@@H]2O[C@H](CO)[C@@H](O)[C@H](O)[C@H]2O)Oc2ccc(cc2Cl)[C@H]1O
- MIC (Enterococcus faecium): 64 µg/mL (≈ 34.1 µM)
- MIC (Enterococcus faecalis): 128 µg/mL (≈ 68.2 µM)
- MIC (Staphylococcus aureus): 1 µg/mL (≈ 0.533 µM)

Compound: CN[C@H](CC(C)C)C(=O)N[C@H]1C(=O)N[C@@H](CC(N)=O)C(=O)N[C@H]2C(=O)N[C@H]3C(=O)NC(C(=O)N[C@@H](C(=O)NC(=O)[C@H](Cc4ccc(O)cc4)NC(=O)[C@H](Cc4c[nH]c5ccccc45)NC(=O)[C@@H](N)CC(C)C)c4cc(O)cc(O)c4-c4cc3ccc4O)[C@H](O[C@H]3C[C@](C)(N)[C@@H](O)[C@H](C)O3)c3ccc(c(Cl)c3)Oc3cc2cc(c3O[C@@H]2O[C@H](CO)[C@@H](O)[C@H](O)[C@H]2O)Oc2ccc(cc2Cl)[C@H]1O
- MIC (Enterococcus faecium): 8 µg/mL (≈ 4.19 µM)
- MIC (Enterococcus faecalis): 16 µg/mL (≈ 8.37 µM)
- MIC (Staphylococcus aureus): 0.5 µg/mL (≈ 0.262 µM)

Compound: CN[C@H](CC(C)C)C(=O)N[C@H]1C(=O)N[C@@H](CC(N)=O)C(=O)N[C@H]2C(=O)N[C@H]3C(=O)NC(C(=O)N[C@@H](C(=O)NC(=O)[C@H](Cc4c[nH]cn4)NC(=O)[C@H](CCCCN)NC(=O)[C@@H](N)Cc4c[nH]c5ccccc45)c4cc(O)cc(O)c4-c4cc3ccc4O)[C@H](O[C@H]3C[C@](C)(N)[C@@H](O)[C@H](C)O3)c3ccc(c(Cl)c3)Oc3cc2cc(c3O[C@@H]2O[C@H](CO)[C@@H](O)[C@H](O)[C@H]2O)Oc2ccc(cc2Cl)[C@H]1O
- MIC (Enterococcus faecium): 8 µg/mL (≈ 4.21 µM)
- MIC (Enterococcus faecalis): 64 µg/mL (≈ 33.7 µM)
- MIC (Staphylococcus aureus): < 0.125 µg/mL

Compound: CN[C@H](CC(C)C)C(=O)N[C@H]1C(=O)N[C@@H](CC(N)=O)C(=O)N[C@H]2C(=O)N[C@H]3C(=O)NC(C(=O)N[C@@H](C(=O)O)c4cc(O)cc(O)c4-c4cc3ccc4O)[C@H](O[C@H]3C[C@](C)(N)[C@@H](O)[C@H](C)O3)c3ccc(c(Cl)c3)Oc3cc2cc(c3O[C@@H]2O[C@H](CO)[C@@H](O)[C@H](O)[C@H]2O)Oc2ccc(cc2Cl)[C@H]1O
- MIC (Enterococcus faecium): > 128 µg/mL
- MIC (Enterococcus faecalis): > 128 µg/mL
- MIC (Staphylococcus aureus): 0.5 µg/mL (≈ 0.345 µM)
